# In publication PMC9456400 (International Journal of Molecular Sciences, 2022):
# Test system: Huh-7 cells
# Test: UHPLC-ESI-QTOF-MS/MS lipidomics
# Assay type: cell-based, human
# Details: Huh-7 cells; SBN 100 µmol/L, lorlatinib 1 µmol/L; median
# Description: We then questioned whether lorlatinib used at concentrations efficacious against ALK-rearranged lung cancer cells but non-toxic to ALK-negative cells could promote substantial lipidome changes in Huh-7 cells (Figure 1B; Table 1). Accordingly, […], and the lipidome was characterized in a semi-targeted approach using a UHPLC-ESI-QTOF-MS/MS method, in which we matched mass spectra with commercial standards (SPLAH mix), databases such as METLIN-PCDL and Lipid MAPS (accessed on 1 July 2022), as well as corroboration of tentative lipid species upon obtaining their MS/MS spectrum. Representative chromatograms of lipidomic analyses in Huh-7 cells can be found in Figure S1.
# Lipid extraction, preparation of external calibration curves, and quality control approaches were carried out as described. Samples (2 μL) were injected directly into a 1290 Infinity UHPLC system coupled with a dual Agilent jet stream ESI source to a 6550 QTOF-MS instrument (Agilent Technologies, Santa Clara, CA, USA). UHPLC-ESI-QTOF-MS conditions, data analysis and indirect quantification of selected lipid species using MassHunter Qualitative Analysis B.07.00 software (Agilent Technologies), and corroboration of the tentative characterization of compound match entities using the Lipid Maps database (www.lipidmaps.org, accessed on 1 July 2022) and targeted MS/MS acquisition on LC-QTOF-MS instrument, have been previously described in detail.
# Differentially expressed lipid species from untargeted lipidomic data were analyzed by generating volcano plots indicating statistical significance versus magnitude of fold-change for each lipid species (cutoff of Benjamini–Hochberg corrected p-value < 0.05 and log2 fold-change > 1 or […]).
structure (smiles),measurement,value
"C[C@H]1Oc2cc(cnc2N)-c2c(nn(C)c2C#N)CN(C)C(=O)c2ccc(F)cc21 [lorlatinib, (10R)-7-amino-12-fluoro-2,10,16-trimethyl-15-oxo-10,15,16,17-tetrahydro-2H-8,4-(metheno)pyrazolo [4,3-h][2,5,11]-benzoxadiazacyclotetradecine-3-carbonitrile]",Relative concentration of PC 38:4,12.355 µmol/mg protein
same,Relative concentration of PC 38:5,12.838 µmol/mg protein
same,Relative concentration of PC 38:5e,0.193 µmol/mg protein
same,Relative concentration of PC 38:6,9.312 µmol/mg protein
same,Relative concentration of PC 38:6e,0.353 µmol/mg protein
same,Relative concentration of PC 40:4,0.298 µmol/mg protein
same,Relative concentration of PC 40:4e,0.087 µmol/mg protein
same,Relative concentration of PC 40:5,1.883 µmol/mg protein
same,Relative concentration of PC 40:6,2.981 µmol/mg protein
same,Relative concentration of PC 42:4e,0.056 µmol/mg protein
same,Relative concentration of PC 42:5e,0.118 µmol/mg protein
same,Relative concentration of PE 32:0,0.231 µmol/mg protein
same,Relative concentration of PE 36:4,15.311 µmol/mg protein
same,Relative concentration of PE 36:5e,1.339 µmol/mg protein
same,Relative concentration of PE 38:5e,0.649 µmol/mg protein
same,Relative concentration of SM 32:0,0.350 µmol/mg protein
same,Relative concentration of SM 32:1,2.087 µmol/mg protein
same,Relative concentration of SM 32:2,0.032 µmol/mg protein
same,Relative concentration of SM 33:1,1.877 µmol/mg protein
same,Relative concentration of SM 34:1,22.397 µmol/mg protein
same,Relative concentration of SM 34:2,1.973 µmol/mg protein
same,Relative concentration of SM 35:0,1.702 µmol/mg protein
same,Relative concentration of SM 35:1,0.803 µmol/mg protein
same,Relative concentration of SM 36:0,0.297 µmol/mg protein
same,Relative concentration of SM 36:1,1.764 µmol/mg protein
same,Relative concentration of SM 36:2,0.702 µmol/mg protein
same,Relative concentration of SM 38:1,0.595 µmol/mg protein
same,Relative concentration of SM 38:2,0.151 µmol/mg protein
same,Relative concentration of SM 39:1,0.210 µmol/mg protein
same,Relative concentration of SM 40:0,0.286 µmol/mg protein
same,Relative concentration of SM 40:1,1.575 µmol/mg protein
same,Relative concentration of SM 40:2,0.891 µmol/mg protein
same,Relative concentration of SM 41:1,0.637 µmol/mg protein
same,Relative concentration of SM 41:2,0.065 µmol/mg protein
same,Relative concentration of SM 42:1,2.064 µmol/mg protein
same,Relative concentration of SM 42:2,3.149 µmol/mg protein
same,Relative concentration of SM 42:3,0.805 µmol/mg protein
same,Relative concentration of SM 43:1,0.128 µmol/mg protein
same,Relative concentration of SM 43:2,0.358 µmol/mg protein
same,Relative concentration of TG 46:0,1.549 µmol/mg protein
same,Relative concentration of TG 46:1,2.111 µmol/mg protein
same,Relative concentration of TG 46:2,1.025 µmol/mg protein
same,Relative concentration of TG 48:0,2.372 µmol/mg protein
same,Relative concentration of TG 48:1,5.318 µmol/mg protein
same,Relative concentration of TG 48:2,4.451 µmol/mg protein
same,Relative concentration of TG 48:3,1.146 µmol/mg protein
same,Relative concentration of TG 50:0,1.142 µmol/mg protein
same,Relative concentration of TG 50:1,9.399 µmol/mg protein
same,Relative concentration of TG 50:2,11.302 µmol/mg protein
same,Relative concentration of TG 50:3,4.462 µmol/mg protein
same,Relative concentration of TG 50:4,1.054 µmol/mg protein
same,Relative concentration of TG 51:2,2.969 µmol/mg protein
same,Relative concentration of TG 52:1,3.455 µmol/mg protein
same,Relative concentration of TG 52:2,16.188 µmol/mg protein
same,Relative concentration of TG 52:3,12.354 µmol/mg protein
same,Relative concentration of TG 52:4,3.787 µmol/mg protein
same,Relative concentration of TG 52:5,1.312 µmol/mg protein
same,Relative concentration of TG 52:6,0.708 µmol/mg protein
same,Relative concentration of TG 54:2,3.515 µmol/mg protein
same,Relative concentration of TG 54:3,11.096 µmol/mg protein
same,Relative concentration of TG 54:4,6.556 µmol/mg protein
same,Relative concentration of TG 54:5,4.411 µmol/mg protein
